According to PMC9655341 (Molecules, 2022):

Columns and labels:
human MT1 receptors [1] = target: T1, human MT1 receptors (Homo sapiens, UniProt P48039); assay: Binding affinity at human MT1 receptors stably transfected in CHO cells, 2-[125I]iodomelatonin; conditions: read-out: MT1 pKi (Mean ± SD) (converted)
T1 construct: expressed in transfected cells; host or cells: CHO (Chinese hamster ovary) cells, stably transfected

human MT2 receptors [2] = target: T2, human MT2 receptors (Homo sapiens, UniProt P49286); assay: Binding affinity at human MT2 receptors stably transfected in CHO cells, 2-[125I]iodomelatonin; conditions: read-out: MT2 pKi (Mean ± SD) (converted)
T2 construct: expressed in transfected cells; host or cells: CHO (Chinese hamster ovary) cells, stably transfected
T2 sequence (P49286 1-362): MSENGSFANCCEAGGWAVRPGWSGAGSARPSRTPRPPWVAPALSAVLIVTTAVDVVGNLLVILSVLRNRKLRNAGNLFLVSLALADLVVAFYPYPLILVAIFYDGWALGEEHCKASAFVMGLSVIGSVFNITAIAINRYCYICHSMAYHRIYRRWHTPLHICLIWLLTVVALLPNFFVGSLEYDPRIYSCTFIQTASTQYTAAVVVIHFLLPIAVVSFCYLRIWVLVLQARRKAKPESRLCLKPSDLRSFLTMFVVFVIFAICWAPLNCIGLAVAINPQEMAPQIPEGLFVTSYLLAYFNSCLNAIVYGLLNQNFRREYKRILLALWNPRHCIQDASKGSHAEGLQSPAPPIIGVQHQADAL

human MT1 receptors [3] = target: T1, human MT1 receptors; assay: Intrinsic activity at human MT1 receptors stably transfected in CHO cells; assay type: biochemical; conditions: MT1, melatonin = 1.00
human MT2 receptors [4] = target: T2, human MT2 receptors; assay: Intrinsic activity at human MT2 receptors stably transfected in CHO cells; assay type: biochemical; conditions: MT2, melatonin = 1.00
[5] = Oxidation of 2,3-dihydroindoles in solution (NMR tube, storage in DMSO solution); assay type: physicochemical
Description: Despite stability in the solid phase, the obtained 2,3-dihydroindoles are sensitive to oxidation in solution. Thus, the oxidation in the NMR tube occurred both in spiro and 3H-containing indolines, but led to different types of products. […] The compounds 8i,l,g were also partially converted to aromatic indoles 9i,l,g during purification by column chromatography.
[formula] Scheme 10 Oxidative conversion of 2,3-dihydroindoles during storage in DMSO solution.

[6] = target: T3, human MT1 melatonin receptor (Homo sapiens, UniProt P48039); assay: Radioligand binding assay at human MT1 (MDS Pharma Services), 2-[125I]iodomelatonin; conditions: for inhibition at 50 pM: MT1, concentration 0.05 nM; for inhibition at 0.001 µM: MT1, concentration 1 nM; for inhibition at 1 µM: MT1, concentration 1 µM
T3 construct: expressed in transfected cells; host or cells: CHO (Chinese hamster ovary) cells, stably transfected

[7] = target: T4, human MT2 melatonin receptor (Homo sapiens, UniProt P49286); assay: Radioligand binding assay at human MT2 (MDS Pharma Services), 2-[125I]iodomelatonin; conditions: for IC50 / Ki / nH (Hill coefficient): MT2; for inhibition at 50 pM: MT2, concentration 0.05 nM; for inhibition at 0.001 µM: MT2, concentration 1 nM; for inhibition at 1 µM: MT2, concentration 1 µM
T4 construct: expressed in transfected cells; host or cells: CHO (Chinese hamster ovary) cells, stably transfected
T4 sequence (P49286 1-362): T2 sequence (P49286 1-362)
Experimental: The newly synthesized indole derivatives were evaluated for their binding affinity and intrinsic activity at human MT1 and MT2 receptors stably transfected in Chinese hamster ovary (CHO) cells using 2-[^125I]iodomelatonin as a radioligand, and the results are shown in Table 5 and Table 6.

T1 sequence (P48039 whole entry): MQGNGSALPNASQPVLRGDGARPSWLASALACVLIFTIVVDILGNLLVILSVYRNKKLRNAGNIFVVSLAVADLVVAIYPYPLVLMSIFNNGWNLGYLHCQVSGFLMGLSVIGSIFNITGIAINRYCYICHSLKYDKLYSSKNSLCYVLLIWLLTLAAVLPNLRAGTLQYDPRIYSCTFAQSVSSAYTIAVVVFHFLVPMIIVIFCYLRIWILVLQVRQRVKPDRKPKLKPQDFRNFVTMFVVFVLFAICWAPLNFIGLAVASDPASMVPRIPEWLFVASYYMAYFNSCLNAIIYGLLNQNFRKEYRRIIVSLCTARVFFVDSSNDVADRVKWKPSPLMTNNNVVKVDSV
T3 sequence (P48039 whole entry): as above

Structure (SMILES): COc1ccc2c(c1)C(C)(CCNC(C)=O)CN2C (stereo not drawn) [8e, N-[2-(1,3-Dimethyl-5-methoxy-2,3-dihydro-1H-indol-3-yl)ethyl]acetamide]
- Ki (human MT1 receptors [1]): 58.9 nM
- Ki (human MT2 receptors [2]): 195 nM
- MT1 Intrinsic Activity (human MT1 receptors [3]): 0.94 ± 0.10
- MT2 Intrinsic Activity (human MT2 receptors [4]): 0.96 ± 0.07

Structure (SMILES): CC(=O)NCCC1CN(Cc2ccccc2)c2ccccc21 (stereo not drawn) [8m, N-[2-(1-Benzyl-2,3-dihydro-1H-indol-3-yl)ethyl]acetamide]
- Stability to oxidation in solution [5]: aromatization of the indole ring occurred

Structure (SMILES): COc1ccc2[nH]cc(CCNC(C)=O)c2c1 [Melatonin, 3-(2-(acetylamino)ethyl)-5-methoxyindole, reference compound]
- nH (Hill coefficient) ([6]; MT1): 0.774
- MT1 Intrinsic Activity (human MT1 receptors [3]): 1.00 ± 0.03

Structure (SMILES): COc1ccc2c(c1)C(CCNC(C)=O)CN2Cc1ccccc1 (stereo not drawn) [8h, N-[2-(1-Benzyl-5-methoxy-2,3-dihydro-1H-indol-3-yl)ethyl]acetamide]
- Ki (human MT1 receptors [1]): 5.25 nM
- Ki (human MT2 receptors [2]): 2.29 nM
- MT1 Intrinsic Activity (human MT1 receptors [3]): 1.04 ± 0.14
- MT2 Intrinsic Activity (human MT2 receptors [4]): 0.85 ± 0.08

Structure (SMILES): COc1ccc2c(c1)C(C)(CCNC(C)=O)CN2Cc1ccccc1 (stereo not drawn) [8f, N-[2-(1-Benzyl-3-methyl-5-methoxy-2,3-dihydro-1H-indol-3-yl)ethyl]acetamide]
- Ki (human MT1 receptors [1]): 112 nM
- Ki (human MT2 receptors [2]): 46.8 nM
- MT1 Intrinsic Activity (human MT1 receptors [3]): 0.63 ± 0.14
- MT2 Intrinsic Activity (human MT2 receptors [4]): 0.61 ± 0.03

Structure (SMILES): CC(=O)NCCC1(C)CN(C)c2ccccc21 (stereo not drawn) [8a, N-[2-(1,3-Dimethyl-2,3-dihydro-1H-indol-3-yl)ethyl]acetamide]
- Ki (human MT1 receptors [1]): 776 nM
- Ki (human MT2 receptors [2]): 427 nM
- MT1 Intrinsic Activity (human MT1 receptors [3]): 0.47 ± 0.10
- MT2 Intrinsic Activity (human MT2 receptors [4]): 0.74 ± 0.07

Structure (SMILES): CCC(=O)NC1Cc2ccccc2C(c2ccccc2)C1 (stereo not drawn) [4-P-PDOT, reference compound]
- IC50 [7]: 0.497 nM
- Ki [7]: 0.258 nM
- nH (Hill coefficient) [7]: 0.840

Structure (SMILES): CC(=O)NCC1CC12CN(C)c1ccccc12 (stereo not drawn) [10a, N-{1′-Methyl-1′,2′-dihydrospiro[cyclopropan-1,3′-indol]-3-ylmethyl}acetamide]
- Stability to oxidation in solution [5]: oxidized to 2-oxindole

Structure (SMILES): COc1ccc2c(c1)C(CCNC(C)=O)C(=O)N2 (stereo not drawn) [7a, N-[2-(5-methoxy-2-oxo-2,3-dihydro-1H-indol-3-yl)ethyl]acetamide]
- IC50 ([6]; MT1): > 1000 nM
- inhibition at 50 pM [6]: 4%
- inhibition at 0.001 µM [6]: 3%
- inhibition at 1 µM [6]: 46%
- IC50 [7]: 268 nM
- Ki [7]: 139 nM
- nH (Hill coefficient) [7]: 0.676
- inhibition at 50 pM [7]: 4%
- inhibition at 0.001 µM [7]: 3%
- inhibition at 1 µM [7]: 71%

Structure (SMILES): COc1ccc2[nH]c(Cl)c(CCNC(C)=O)c2c1 [7d, 2-chloromelatonin]
- IC50 ([6]; MT1): 0.138 nM
- Ki ([6]; MT1): 0.0716 nM
- nH (Hill coefficient) ([6]; MT1): 0.925
- inhibition at 50 pM [6]: 28%
- inhibition at 0.001 µM [6]: 86%
- inhibition at 1 µM [6]: 100%
- MT1 receptor binding activity compared with melatonin ([6]; MT1, in words): more active than melatonin
- IC50 [7]: 0.338 nM
- Ki [7]: 0.176 nM
- nH (Hill coefficient) [7]: 1.01
- inhibition at 50 pM [7]: 13%
- inhibition at 0.001 µM [7]: 75%
- inhibition at 1 µM [7]: 98%

Structure (SMILES): CC(=O)NCCC1CN(C)c2c1ccc(C)c2C (stereo not drawn) [8l, N-[2-(1,6,7-Trimethyl −2,3-dihydro-1H-indol-3-yl)ethyl]acetamide]
- Ki (human MT1 receptors [1]): 251 nM
- Ki (human MT2 receptors [2]): 166 nM
- MT1 Intrinsic Activity (human MT1 receptors [3]): 0.61 ± 0.15
- MT2 Intrinsic Activity (human MT2 receptors [4]): 0.83 ± 0.05

Structure (SMILES): CC(=O)NCCC1(C)CN(Cc2ccccc2)c2ccccc21 (stereo not drawn) [8b, N-[2-(1-Benzyl-3-methyl-2,3-dihydro-1H-indol-3-yl)ethyl]acetamide]
- Ki (human MT1 receptors [1]): 1740 nM
- Ki (human MT2 receptors [2]): 72.4 nM
- MT1 Intrinsic Activity (human MT1 receptors [3]): 0.33 ± 0.04
- MT2 Intrinsic Activity (human MT2 receptors [4]): 0.45 ± 0.04
